Drawing on ChEMBL document CHEMBL1138737, “High-resolution structures of human aldose reductase holoenzyme in complex with stereoisomers of the potent inhibitor Fidarestat: stereospecific interaction between the enzyme and a cyclic imide type inhibitor” (J Med Chem, 2004), this text covers IC50 for four compounds.

Structures are written as SMILES.

This test concerns the target Aldo-keto reductase family 1 member B1 (Homo sapiens, UniProt P15121). Briefly: Binding affinity for human Aldose reductase 2 expressed in Escherichia coli.
As usually defined, the IC50 is the concentration needed to halve the response being measured. Low values mean greater potency, high ones weaker potency. Consider `NC(=O)[C@H]1C[C@@]2(NC(=O)NC2=O)c2cc(F)ccc2O1` (mixture of isomers), for which the IC50 turned out to be 40 µM. In turn, `NC(=O)[C@H]1C[C@]2(NC(=O)NC2=O)c2cc(F)ccc2O1` [(R,S)-FIDARESTAT] came in with an IC50 of 0.57 µM.

In turn, `NC(=O)[C@@H]1C[C@@]2(NC(=O)NC2=O)c2cc(F)ccc2O1` [(S,R)-FIDARESTAT] showed an IC50 of 11 µM.

Turning to `NC(=O)[C@@H]1C[C@]2(NC(=O)NC2=O)c2cc(F)ccc2O1` [FIDARESTAT], the IC50 was found to be 0.03 µM.
